Reference: patent publication US10618918B2, “Substituted boronic acids as antimicrobials” (priority 2015, dated 2020)

Legend:
[1] = test system: KP1004 KPC-2; assay: Biapenem potentiation (MPC@1), strain KP1004 KPC-2; format: cell-based; details: minimum BLI concentration inhibiting growth with biapenem 1 μg/mL; tested up to 40 μg/mL
Procedure: (§1) Biapenem was present in the test medium at 1 μg/mL. […] Table 3 summarizes the BLI potency of biapenem potentiation (MPC@1) for two strains overexpressing class A (KPC) and class D (OXA-48) carbapenemases. Biapenem MIC for each strain is also shown.

[2] = test system: ec302 TEM-10; assay: Aztreonam potentiation (MPC@4), strain ec302 TEM-10; details: minimum BLI concentration inhibiting growth with aztreonam 4 μg/mL; tested up to 40 μg/mL
[3] = test system: KP1010 SHV-12; assay: Aztreonam potentiation (MPC@4), strain KP1010 SHV-12; details: minimum BLI concentration inhibiting growth with aztreonam 4 μg/mL; tested up to 40 μg/mL
[4] = test system: EC1010 CMY-6; assay: Aztreonam potentiation (MPC@4), strain EC1010 CMY-6; details: minimum BLI concentration inhibiting growth with aztreonam 4 μg/mL; tested up to 40 μg/mL
[5] = test system: ec308 SHV-5; assay: Aztreonam potentiation (MPC@4), strain ec308 SHV-5; details: minimum BLI concentration inhibiting growth with aztreonam 4 μg/mL; tested up to 40 μg/mL
[6] = test system: KP1009 CTX-M-15; assay: Aztreonam potentiation (MPC@4), strain KP1009 CTX-M-15; details: minimum BLI concentration inhibiting growth with aztreonam 4 μg/mL; tested up to 40 μg/mL
[7] = test system: PAM1154/KPC-2; assay: Biapenem potentiation MPC64 in PAM1154/KPC-2 (efflux deficient, lacks MexAB-OprM); format: cell-based, Pseudomonas aeruginosa; details: BLI concentration decreasing biapenem MIC 64-fold, from 32 μg/ml to 0.5 μg/ml; efflux deficient strain
Procedure: (§2) Efflux of BLIs from Pseudomonas aeruginosa by the MexAB-OprM efflux pump was also evaluated. The plasmid expressing the gene encoding KPC-2 was introduced into two strains of P. aeruginosa, PAM1032 and PAM 1154 that overexpressed or lacked MexAB-OprM, respectively. […] Potency of BLIs to potentiate biapenem in these strains was determined.

[8] = test system: ECL1002; assay: Aztreonam potentiation (MPC@4), strain ECL1002; details: minimum BLI concentration inhibiting growth with aztreonam 4 μg/mL; tested up to 40 μg/mL
[9] = test system: KP1004 KPC-2; assay: Aztreonam potentiation (MPC@4), strain KP1004 KPC-2; details: minimum BLI concentration inhibiting growth with aztreonam 4 μg/mL; tested up to 40 μg/mL
[10] = test system: PAM1032/KPC-2; assay: Biapenem potentiation MPC64 in PAM1032/KPC-2 (efflux proficient, overexpresses MexAB-OprM); format: cell-based, Pseudomonas aeruginosa; details: BLI concentration decreasing biapenem MIC 64-fold, from 32 μg/ml to 0.5 μg/ml; efflux proficient strain
Procedure: as §2

[11] = test system: KP1005 CTX-M-14; assay: Tigemonam potentiation (MPC@4), strain KP1005 CTX-M-14; details: minimum BLI concentration inhibiting growth with tigemonam 4 μg/mL; tested up to 40 μg/mL
[12] = target: purified class A, C and D enzymes (β-lactamases) (Escherichia coli, UniProt Q9L5C7); assay: biochemical; format: biochemical; details: purified CTX-M-14; nitrocefin (NCF) as reporter substrate
Sequence of purified class A, C and D enzymes (β-lactamases) (Escherichia coli, UniProt Q9L5C7) (Q9L5C7 entry or part of it): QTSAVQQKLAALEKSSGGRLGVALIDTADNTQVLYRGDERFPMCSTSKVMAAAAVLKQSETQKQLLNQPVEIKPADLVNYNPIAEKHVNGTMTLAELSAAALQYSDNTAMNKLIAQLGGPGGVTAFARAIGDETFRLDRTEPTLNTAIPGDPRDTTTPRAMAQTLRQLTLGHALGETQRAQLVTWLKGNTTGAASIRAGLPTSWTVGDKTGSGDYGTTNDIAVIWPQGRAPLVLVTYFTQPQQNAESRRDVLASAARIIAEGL

[13] = target: T1, purified class A, C and D enzymes (β-lactamases) (UniProt P0AD64, L31Q/G234S/E235K, species not given); assay: biochemical; format: biochemical; details: purified SHV-12; nitrocefin (NCF) as reporter substrate; read-out: Ki (SHV-12, NCF)
T1 construct: Ki (SHV-12, NCF), uM; other: purified SHV-12; nitrocefin (NCF) as reporter substrate
T1 sequence (P0AD64 1-286 L31Q/G234S/E235K): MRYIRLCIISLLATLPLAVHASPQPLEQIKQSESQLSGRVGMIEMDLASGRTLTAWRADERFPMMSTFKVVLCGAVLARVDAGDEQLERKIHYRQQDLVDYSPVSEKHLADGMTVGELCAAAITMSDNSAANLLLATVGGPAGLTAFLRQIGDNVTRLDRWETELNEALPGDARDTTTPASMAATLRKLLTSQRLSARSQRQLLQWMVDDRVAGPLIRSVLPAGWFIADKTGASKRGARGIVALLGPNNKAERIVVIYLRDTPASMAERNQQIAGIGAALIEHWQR

[14] = target: purified class A, C and D enzymes (β-lactamases) (Klebsiella pneumoniae, UniProt Q6XEC0); assay: biochemical; format: biochemical; details: purified OXA-48; nitrocefin (NCF) as reporter substrate
[15] = target: purified class A, C and D enzymes (β-lactamases) (Klebsiella pneumoniae, UniProt Q9F663); assay: biochemical; format: biochemical; details: purified KPC-2; nitrocefin (NCF) as reporter substrate
[16] = target: purified class A, C and D enzymes (β-lactamases) (Enterobacter cloacae, UniProt P05364); assay: biochemical; format: biochemical; details: purified P99; nitrocefin (NCF) as reporter substrate
Sequence of purified class A, C and D enzymes (β-lactamases) (Enterobacter cloacae, UniProt P05364) (P05364 21-381): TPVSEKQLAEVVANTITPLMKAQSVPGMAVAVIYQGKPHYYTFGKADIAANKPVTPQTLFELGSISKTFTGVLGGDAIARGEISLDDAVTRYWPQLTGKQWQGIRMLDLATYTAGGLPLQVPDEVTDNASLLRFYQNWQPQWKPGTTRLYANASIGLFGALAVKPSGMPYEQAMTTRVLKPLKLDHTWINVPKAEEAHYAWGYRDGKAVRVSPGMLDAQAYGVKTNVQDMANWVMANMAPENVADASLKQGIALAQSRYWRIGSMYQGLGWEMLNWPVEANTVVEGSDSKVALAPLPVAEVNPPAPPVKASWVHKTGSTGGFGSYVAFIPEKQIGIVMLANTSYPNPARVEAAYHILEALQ

[17] = test system: KP1086 OXA-48; assay: Biapenem potentiation (MPC@1), strain KP1086 OXA-48; format: cell-based; details: minimum BLI concentration inhibiting growth with biapenem 1 μg/mL; tested up to 40 μg/mL
Procedure: as §1

[18] = test system: AB1054 OXA-23; assay: Meropenem potentiation (MPC@8), strain AB1054 OXA-23; format: cell-based, Acinetobacter baumannii; details: minimum BLI concentration inhibiting growth with meropenem 8 μg/mL; tested up to 20 μg/mL
[19] = test system: AB1053 OXA-72; assay: Meropenem potentiation (MPC@8), strain AB1053 OXA-72; format: cell-based, Acinetobacter baumannii; details: minimum BLI concentration inhibiting growth with meropenem 8 μg/mL; tested up to 20 μg/mL
[20] = target: T2, purified class A, C and D enzymes (β-lactamases) (Acinetobacter baumannii, UniProt Q9L4P2); assay: biochemical; format: biochemical; details: purified OXA-23; nitrocefin (NCF) as reporter substrate
T2 construct: rows headed: Ki (OXA-23, NCF), uM; other: purified OXA-23; nitrocefin (NCF) as reporter substrate
T2 sequence (Q9L4P2 whole entry): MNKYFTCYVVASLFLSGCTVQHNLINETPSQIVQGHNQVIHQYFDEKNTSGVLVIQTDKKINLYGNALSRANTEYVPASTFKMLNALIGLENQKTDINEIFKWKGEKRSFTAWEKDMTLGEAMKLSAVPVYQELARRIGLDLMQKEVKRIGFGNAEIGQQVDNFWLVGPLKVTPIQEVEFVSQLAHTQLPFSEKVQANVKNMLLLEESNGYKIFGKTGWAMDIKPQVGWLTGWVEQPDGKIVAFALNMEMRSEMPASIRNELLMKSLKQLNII

SMILES	BPM MPC1 KP1004 KPC-2 [1]	AZT MPC4 TEM-10 ec302 [2]	AZT MPC4 SHV-12 KP1010 [3]	AZT MPC4 CMY-6 EC1010 [4]	AZT MPC4 SHV-5 ec308 [5]	AZT MPC4 CTX-M-15 KP1009 [6]	PAM1154/KPC-2 Biapenem MPC64 [7]	AZT MPC4 ECL1002 [8]	AZT MPC4 KPC-2 KP1004 [9]	PAM1032/KPC-2 Biapenem MPC64 [10]	TIG MPC4 CTX-M-14 KP1005 [11]	Ki (CTX-M-14, NCF), uM [12]	Ki [13] [nM]	Ki (OXA-48, NCF), uM [14]	Ki (KPC-2, NCF), uM [15]	Ki (P99, NCF), uM [16]	BPM MPC1 OXA-48 KP1086 [17]	MPM MPC8 AB1054 OXA-23 [18]	MPM MPC8 AB1053 OXA-72 [19]	Ki [20] [nM]
O=C(Cc1cccs1)NC1CB(O)Oc2c(C(=O)O)cccc21 (centres unmarked) [Compound 1, 2-HYDROXY-4-(2-(THIOPHEN-2-YL)ACETAMIDO)-3,4-DIHYDRO-2H-BENZO[E][1,2]OXABORININE-8-CARBOXYLIC ACID]	X (X = MPC@1 ≤ 5 μg/mL)	X (X = MPC@4 ≤ 5 μg/mL)	X (X = MPC@4 ≤ 5 μg/mL)	X (X = MPC@4 ≤ 5 μg/mL)	X (X = MPC@4 ≤ 5 μg/mL)	X (X = MPC@4 ≤ 5 μg/mL)	2.5	Y (Y = 5 μg/mL < MPC@4 ≤ 20 μg/mL)	X (X = MPC@4 ≤ 5 μg/mL)	40	X (X = MPC@4 ≤ 5 μg/mL)	X (X = Ki ≤ 0.1 μM)	< 100	X (X = Ki ≤ 0.1 μM)	X (X = Ki ≤ 0.1 μM)	X (X = Ki ≤ 0.1 μM)	Y (Y = 5 μg/mL < MPC@1 ≤ 20 μg/mL)	–	–	–
Nc1nnc(C(=O)NC2CB(O)Oc3c(C(=O)O)cccc32)s1 (centres unmarked) [Compound 2, 4-(5-AMINO-1,3,4-THIADIAZOLE-2-CARBOXAMIDO)-2-HYDROXY-3,4-DIHYDRO-2H-BENZO[E][1,2]OXABORININE-8-CARBOXYLIC ACID]	X (X = MPC@1 ≤ 5 μg/mL)	X (X = MPC@4 ≤ 5 μg/mL)	X (X = MPC@4 ≤ 5 μg/mL)	X (X = MPC@4 ≤ 5 μg/mL)	X (X = MPC@4 ≤ 5 μg/mL)	X (X = MPC@4 ≤ 5 μg/mL)	1.25	X (X = MPC@4 ≤ 5 μg/mL)	X (X = MPC@4 ≤ 5 μg/mL)	20	X (X = MPC@4 ≤ 5 μg/mL)	X (X = Ki ≤ 0.1 μM)	< 100	X (X = Ki ≤ 0.1 μM)	X (X = Ki ≤ 0.1 μM)	X (X = Ki ≤ 0.1 μM)	X (X = MPC@1 ≤ 5 μg/mL)	–	–	–
O=C(O)c1cccc2c1OB(O)CN2S(=O)(=O)Cc1ccccc1 [Compound 4, 4-(BENZYLSULFONYL)-2-HYDROXY-3,4-DIHYDRO-2H-BENZO[E][1,4,2]OXAZABORININE-8-CARBOXYLIC ACID]	X (X = MPC@1 ≤ 5 μg/mL)	Z (Z = MPC@4 > 20 μg/mL)	Z (Z = MPC@4 > 20 μg/mL)	Z (Z = MPC@4 > 20 μg/mL)	Z (Z = MPC@4 > 20 μg/mL)	Z (Z = MPC@4 > 20 μg/mL)	5	Z (Z = MPC@4 > 20 μg/mL)	Z (Z = MPC@4 > 20 μg/mL)	>80	Z (Z = MPC@4 > 20 μg/mL)	X (X = Ki ≤ 0.1 μM)	< 100	X (X = Ki ≤ 0.1 μM)	X (X = Ki ≤ 0.1 μM)	X (X = Ki ≤ 0.1 μM)	Z (Z = MPC@1 > 20 μg/mL)	–	–	–
O=C(O)c1cccc2c1OB(O)CC2 [Compound 5, 2-HYDROXY-3,4-DIHYDRO-1,2-BENZOXABORININE-8-CARBOXYLIC ACID]	X (X = MPC@1 ≤ 5 μg/mL)	Z (Z = MPC@4 > 20 μg/mL)	Y (Y = 5 μg/mL < MPC@4 ≤ 20 μg/mL)	Y (Y = 5 μg/mL < MPC@4 ≤ 20 μg/mL)	Z (Z = MPC@4 > 20 μg/mL)	Y (Y = 5 μg/mL < MPC@4 ≤ 20 μg/mL)	0.3	Z (Z = MPC@4 > 20 μg/mL)	X (X = MPC@4 ≤ 5 μg/mL)	20	Z (Z = MPC@4 > 20 μg/mL)	X (X = Ki ≤ 0.1 μM)	< 100	X (X = Ki ≤ 0.1 μM)	X (X = Ki ≤ 0.1 μM)	X (X = Ki ≤ 0.1 μM)	X (X = MPC@1 ≤ 5 μg/mL)	Y (Y = 5 μg/mL < MPC@1 ≤ 20 μg/mL)	Z (Z = MPC@1 > 20 μg/mL)	100 to 1000
